“Also recorded” adds a separate entry of the source.

Results on twelve compounds are retold here after paper PMC10108392, “Rimonabant-Based Compounds Bearing Hydrophobic Amino Acid Derivatives as Cannabinoid Receptor Subtype 1 Ligands” (ACS Medicinal Chemistry Letters, 2023).

The target of experiment [1] is T1, CB1R (Rattus norvegicus, UniProt P20272).
T1 construct: Crude membrane fractions were prepared from the brain; from tissue; host or cells: Wistar rat whole brain, crude membrane fraction
Description: [3H]WIN55,212-2 radioligand competition binding assay in rat brain membrane homogenate. The note with it: for Ki: read-out: Ki [3H]WIN55,212-2 binding, 5 nM [3H]WIN55,212-2, ± SEM, n.b. = no binding of ligands was observed; for Ki [3H]WIN55,212-2 binding: 5 nM [3H]WIN55,212-2, ± SEM, n.b. = no binding of ligands was observed. Here is the method:
(§1) Our novel chemical compounds were tested in vitro for their binding ability, efficacy, and potency on CB1R in rat brain membrane homogenate (Table 2 and SI, Figure S1). CB1Rs are the most abundant G-protein coupled receptors in the rodent and mammalian brain; therefore, this is an appropriate model to characterize our ligands in a more physiological system.
(§2) In Vitro Biological Assays
(§3) Preparation of Brain Membrane Homogenates
(§4) Wistar rats were locally bred and handled according to the EU Directive 2010/63/EU and to the Regulations on Animal Protection (40/2013. (II. 14.) Korm. r.) of Hungary. Crude membrane fractions were prepared from the brain. Brains were quickly removed from the euthanized rats and directly put in an ice-cold 50 mM Tris-HCl buffer (pH 7.4). The collected tissue was then homogenized in 30 volumes (v/w) of an ice-cold buffer with a Braun Teflon-glass homogenizer at the highest rpm. The homogenate was centrifuged at 20,000 × g for 25 min, and the resulting pellet was suspended in the same volume of a cold buffer followed by incubation at 37 °C for 30 min to remove endogenous ligands. Centrifugation was then repeated. The final pellets were taken up in five volumes of a 50 mM Tris-HCl (pH 7.4) buffer containing 0.32 M sucrose and stored at -80 °C. Prior to the experiment, aliquots were thawed and centrifuged at 20,000 ×g for 25 min and then they were resuspended in 50 mM Tris-HCl (pH 7.4), homogenized with a Douncer, followed by the determination of the protein concentration by the method of Bradford. The membrane suspensions were immediately used either in radioligand binding experiments or in [35S]GTPγS functional assays.
Radioligand Competition Binding Assay
Binding experiments were performed at 30 °C for 60 min in a 50 mM Tris-HCl binding buffer (pH 7.4) containing 2.5 mM of EGTA, 5 mM of MgCl2 and 0.5 mg/mL of fatty acid-free BSA in plastic tubes in a total assay volume of 1 mL that contained 0.3-0.5 mg/mL of a membrane protein. Competition binding […]
ligands. […] The incubation […]
was terminated by diluting the samples with an ice-cold wash buffer (50 mM of Tris-HCl, 2.5 mM of EGTA, 5 mM of MgCl2, 0.5% fatty acid free BSA, pH 7.4), followed by repeated washing and rapid filtration through Whatman GF/B glass fiber filters (Whatman Ltd., Maidstone, UK) pre-soaked with 0.1% polyethyleneimine (30 min before the filtration). Filtration was performed with a 24-well Brandel Cell Harvester (Gaithersburg, MD, USA). Filters were air-dried and immersed into Ultima Gold MV scintillation cocktail, and then radioactivity was measured with a TRI-CARB 2100TR liquid scintillation analyzer (Packard, Perkin Elmer, Waltham, MA, USA). […]
The results of the competition binding studies are reported as means ± S.E.M. of at least three independent experiments each performed in duplicate. In competition binding studies, the inhibitory constants (Ki) were calculated from the inflection points of the displacement curves using non-linear least-square curve fitting and the Cheng-Prusoff equation, Ki= […]/(1 + [ligand]/Kd). […]

Experiment [2] deals with T1, CB1R. Description: Ligand stimulated [35S]GTPγS binding assay in rat brain membranes. It is filed as biochemical. The note with it: for CB1R functional profile (agonist / antagonist / inverse agonist): from [35S]GTPγS binding; for CB1R functional profile (agonist / antagonist / inverse agonist) / EC50: rat brain membranes; for Emax: read-out: [35S]GTPγS stimulation Emax; for EC50: ± SEM, read-out: [35S]GTPγS stimulation EC50. Here is the method: as §1, §2, §3
as §4, with “assays. […]” for “assays.”
was terminated by diluting the samples with an ice-cold wash buffer (50 mM of Tris-HCl, 2.5 mM of EGTA, 5 mM of MgCl2, 0.5% fatty acid free BSA, pH 7.4), followed by repeated washing and rapid filtration through Whatman GF/B glass fiber filters (Whatman Ltd., Maidstone, UK) pre-soaked with 0.1% polyethyleneimine (30 min before the filtration). Filtration was performed with a 24-well Brandel Cell Harvester (Gaithersburg, MD, USA). Filters were air-dried and immersed into Ultima Gold MV scintillation cocktail, and then radioactivity was measured with a TRI-CARB 2100TR liquid scintillation analyzer (Packard, Perkin Elmer, Waltham, MA, USA).
Ligand Stimulated [35S]GTPγS Binding Assay
Rat brain membranes (30 µg protein/tube), prepared as described above, were incubated with 0.05 nM of […]
mM of NaCl, 3 mM of MgCl2 and 1 mM of EGTA in a 50 mM Tris-HCl buffer (pH 7.4) for 60 min at 30 °C. Basal [35S]GTPγS binding was measured in the absence of ligands and set as 100%. Nonspecific […]
binding was determined by the addition of 10 µM unlabelled GTPγS and subtracted from total binding.
Incubation, filtration and radioactivity measurements of the samples were carried out as described above. […]
All […]
data and curves were analyzed by GraphPad Prism 5.0 (San Diego, CA, USA).

Experiment [3] has as its system mice. Nature of the experiment: Feeding test (food intake). Type of experiment: in vivo, mouse. The note with it: 10 mg/kg i.p., 1-h test, vs vehicle. The procedure: The tested compounds were injected i.p. (10 mg/kg), and after leaving for 30 min to allow the drug assimilation, mice were placed into individual cages with access to a predefined amount of their standard lab chow (2 g) for the 1-h test.
In Vivo Biological Assays
The international and national law and policies approved by Italian Ministry of Health were used to comply with all animal care and experimental procedures. Animal studies were advised in compliance with the ARRIVE guidelines and with the recommendations made by EU Directive 2010/63/EU for animal experiments and the Basel declaration including the 3Rs concept. CD-1 male mice (10-14 weeks of age, 25-30 g of weight) were bought from Charles River (Milan, Italy). Shortly after their arrival and for at least one week, they were kept in an animal care facility under controlled standard conditions of temperature (21 ± 1 °C), light (from 7:00 AM to 7:00 PM), and relative humidity (60 ± 10%). Access to drinking water and food was assured. All procedures were performed to decrease the number of animals used (n = 7 per group) and their distress.
The test was carried out as previously described. At 24 h before the start of a feeding test, all food was removed from the home cages of mice to be tested. The next day and at least 1 h before the feeding test began, the mice were transported to the laboratory. On test days, the animals were placed in the home cages for 30 min of drug assimilation, during which food was not available. Then compounds were intraperitoneally administered (10 mg/kg). Mice were transferred into transparent and individual plastic cages with thick white paper lining the bottom and access to a pre-measured amount of their regular lab chow (2 gr) for the 1-h test. At the end of 1 h, mice were repositioned into their home cage. The amount of food left in the trial cage, including crumbs, was measured, and the amount consumed was calculated.
Feeding trials normally happened on Tuesdays and Fridays between 12:00 and 14:00 h. […]

T1 sequence (P20272 whole entry): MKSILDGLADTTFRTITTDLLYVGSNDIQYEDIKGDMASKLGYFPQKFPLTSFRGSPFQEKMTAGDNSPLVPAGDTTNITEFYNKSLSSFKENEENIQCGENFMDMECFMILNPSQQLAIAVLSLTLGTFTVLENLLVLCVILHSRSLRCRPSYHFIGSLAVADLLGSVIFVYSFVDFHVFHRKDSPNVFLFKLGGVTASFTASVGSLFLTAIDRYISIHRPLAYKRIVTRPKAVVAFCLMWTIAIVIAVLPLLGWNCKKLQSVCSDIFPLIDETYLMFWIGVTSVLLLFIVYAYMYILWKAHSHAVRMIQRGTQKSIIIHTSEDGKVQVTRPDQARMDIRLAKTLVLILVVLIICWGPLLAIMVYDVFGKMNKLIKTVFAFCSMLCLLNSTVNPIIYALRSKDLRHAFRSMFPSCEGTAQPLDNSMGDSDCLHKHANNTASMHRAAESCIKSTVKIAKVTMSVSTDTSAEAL

Turning to `Cc1c(C(=O)N[C@H](C(N)=O)C(C)(C)C)nn(-c2ccc(Cl)cc2)c1-n1cccc1` [Compound 14, RS2691-tLeu-NH2], in experiment [1], the Ki was 21 ± 3.8 nM. In experiment [2], the “CB1R functional profile (agonist / antagonist / inverse agonist)” value is reported as “antagonist” and the maximum response (Emax) was 104 ± 1.4%. Also, in experiment [3], the food intake result is “activity profile close to that of the vehicle”.
The corresponding values for `COC(=O)[C@@H](NC(=O)c1nn(-c2ccc(Cl)cc2)c(-n2cccc2)c1C)C(C)(C)C` [Compound 24, RS2691-tLeu-OCH3] are 17 ± 3.7 nM, “inverse agonists; also recorded: strong antagonist”, 99 ± 4% and “slight reduction in food intake”.
As for `Cc1c(C(=O)N[C@H](C(N)=O)C(C)(C)C)nn(-c2ccccc2)c1-n1cccc1` [Compound 18, RS2709-tLeu-NH2], the inhibitory constant (Ki) in experiment [1] came out at 60 ± 6.1 nM. Besides, in experiment [2], the “CB1R functional profile (agonist / antagonist / inverse agonist)” value is given as “inverse agonist”, the EC50 is 3320 ± 242 nM and the maximum response (Emax) came to 57 ± 13%. For the same compound, the food intake entry in experiment [3] is “slight reduction in food intake”.
Regarding `COC(=O)[C@@H](NC(=O)c1cc(-n2cccc2)n(-c2ccc(Cl)cc2)n1)C(C)C` [Compound 21, RS2689-Val-OCH3], the Ki in experiment [1] was determined as 261 ± 27 nM. Moreover, in experiment [2], the “CB1R functional profile (agonist / antagonist / inverse agonist)” value is recorded as “inverse agonists”, the 50% effective concentration (EC50) is 1360 ± 139 nM and the Emax is 52 ± 4.8%. Moreover, the food intake result in experiment [3] is reported as “slight reduction in food intake”.
The corresponding values for `COC(=O)[C@@H](NC(=O)c1nn(-c2ccc(Cl)cc2Cl)c(-n2cccc2Cl)c1C)C(C)C` [Compound 29, RS3516-Val-OCH3] are 30 ± 3.5 nM, “inverse agonists”, 2840 ± 118 nM, 44 ± 10% and “strong anorexic effect comparable to that of rimonabant”.
As to `Cc1c(C(=O)N[C@H](C(=O)O)C(C)(C)C)nn(-c2ccc(Cl)cc2)c1-n1cccc1` [Compound 4, RS2691-tLeu-OH], the inhibition constant Ki in experiment [1] came to 5880 ± 152 nM. The EC50 in experiment [2] is 4610 ± 303 nM.
Regarding `CC(C)[C@H](NC(=O)c1cc(-n2cccc2)n(-c2ccc(Cl)cc2)n1)C(=O)O` [Compound 1, RS2689-Val-OH], in experiment [1], the “Ki [3H]WIN55,212-2 binding” value is “n.b”. Also, the 50% effective concentration (EC50) in experiment [2] came out at 5870 ± 372 nM.
For `COC(=O)[C@@H](NC(=O)c1cc(-n2cccc2)n(-c2ccc(Cl)cc2)n1)C(C)(C)C` [Compound 22, RS2689-tLeu-OCH3], the inhibition constant (Ki) in experiment [1] amounted to 44 ± 4 nM. Further, in experiment [2], the “CB1R functional profile (agonist / antagonist / inverse agonist)” value was “inverse agonists”, the 50% effective concentration (EC50) was 4960 ± 333 nM and the Emax stood at 43 ± 12%. Also, the food intake entry in experiment [3] was “activity profile close to that of the vehicle”.
`COC(=O)[C@@H](NC(=O)c1nn(-c2ccc(Cl)cc2Cl)c(-n2cccc2Cl)c1C)C(C)(C)C` [Compound 30, RS3516-tLeu-OCH3]: the Ki in experiment [1] was 21 ± 4.4 nM. The EC50 in experiment [2] was found to be 4390 ± 344 nM.
On to `CC(C)(C)[C@H](NC(=O)c1cc(-n2cccc2)n(-c2ccc(Cl)cc2)n1)C(=O)O` [Compound 2, RS2689-tLeu-OH], for which the “Ki [3H]WIN55,212-2 binding” value in experiment [1] was “n.b”. For the same compound, the EC50 in experiment [2] is 712 ± 18 nM.
For `COC(=O)[C@@H](NC(=O)c1cc(-n2cccc2)n(-c2ccccc2)n1)C(C)(C)C` [Compound 26, RS2708-tLeu-OCH3], the inhibitory constant (Ki) in experiment [1] was found to be 283 ± 18 nM. In experiment [2], the “CB1R functional profile (agonist / antagonist / inverse agonist)” value is given as “inverse agonists”, the EC50 was determined as 1290 ± 151 nM and the Emax amounted to 44 ± 5%. Further, the food intake entry in experiment [3] is reported as “strong anorexic effect comparable to that of rimonabant”.
For the compound `CNC(=O)[C@@H](NC(=O)c1nn(-c2ccc(Cl)cc2Cl)c(-n2cccc2Cl)c1C)C(C)(C)C` [Compound 40, RS3516-tLeu-NHCH3], the “Ki [3H]WIN55,212-2 binding” value in experiment [1] is given as “n.b”. In addition, the EC50 in experiment [2] was 237 ± 45 nM.
